Holding throughout (assay type): in vivo, mouse
For test [1], the system named is C57BL/6J.OlaaHsd mice. Description: DSS-induced colitis, treatment with arginine, citrulline, NaNO2, fisetin or citrulline plus fisetin. The following applies: for weight loss: 1% DSS 6 days; for Histology score for colitis: FIG. 3D; for clinical improvement in colitis severity: evaluated by change in weight, histological score and colon length, vs control. The method, then:
Colitis was induced in Vav1^Cre:As1^f/f mice and CD11c^Cre:As1^f/f with 1.5% DSS and with 0.8% DSS in the Villin^Cre:As1^f/f (wt/vol), (Dextran Sodium Sulfate, MP Biomedicals; molecular weight 36,000-50,000 Da). The powder was dissolved in the drinking water for 6 days, followed by 5 days of supplementing regular water^20. Each group consisted of eight to ten, 8-10 weeks old, male mice. Experiments were repeated at least three times. “f/f”—flox/flox.
Colonoscopy was performed on days 7 and 11 of the experiment to monitor for severity of colitis. For the procedure, a high resolution mouse video endoscopic system was used, which consists of a miniature endoscope (scope 1.9 mm outer diameter), a xenon light source, a triple chip camera, and an air pump to achieve regulated inflation of the mouse bowel (Karl Storz, Tuttlingen, Germany). Mice were anesthetized by the administration of 4-5% of isoflurane in 100% oxygen at a rate of 0.2-0.5 L/min or by the administration of 100 mg/kg Ketamine/10 mg/kg Xylazine mixture IP, after which, the endoscope was introduced via the anus and the colon was carefully insufflated with an air pump before analysis of the colonic mucosa. The endoscopic procedure was viewed on a color monitor and digitally recorded on tape. Colitis was scored according to the Murine endoscopic index of colitis severity (MEICS), considering differences in the thickness of the bowel wall, changes in blood vessel integrity, mucosal surface, stool consistency or the presence of fibrin, scored each between 0 and 3. The cumulative score ranged from 0 (no signs of inflammation) to 15 (signs of severe inflammation)^21.
Mice were treated with 1% (wt/vol) DSS for 6 days, followed by administration of either arginine 1% (wt/vol) solution (Sigma-Aldrich, St. Louis, Mo., catalogue number A8094) in drinking water, citrulline 1% (wt/vol) (L-citrulline, Chem-Impex International), NaNO2 100 mg (Sigma-Aldrich, St. Louis, Mo., catalogue number S2252), or water as control for additional 6 days.
Fisetin was given by intraperitoneal (i.p.) injection (1 mg/animal) in 30 μL of DMSO twice weekly. The control group was injected with 30 μL of DMSO twice weekly. Each group consisted of ten, 8-weeks old, male mice. Experiments were repeated three times.
Histopathology. On the day of sacrifice, colons were removed and their length was measured. Colon was fixed in 2.5% PFA solution overnight at 4° C., then embedded in paraffin, sectioned and stained with H&E. Tissues were examined in a blinded manner by a pathologist and scored on a 0-4 scale based on the parameters of inflammation severity^20.

For test [2], the system named is As1. Briefly: Immunohistochemistry staining of distal colon sections for As1. As to conditions: after colitis induction, vs control mice with colitis; FIG. 3E, 4A. As for the experimental part: Four micrometer paraffin embedded tissue sections were deparaffinized and rehydrated. Endogenous peroxidase was blocked with three percent H2O2 in methanol. Sections undergoing for ALS staining were incubated in cold acetone at −20° C. for 7 minutes. For F4/80 and MAC-2 staining, the present inventors performed antigen retrieval in Tris-EDTA pH 9 and 10 mM citric acid pH 6, for 10 minutes, respectively, using a low boiling program in the microwave to break protein cross-links and unmask antigens. After pre-incubation with 20% normal horse serum and 0.2% Triton X-100 for 1 hour at RT (root temperature), sections were incubated with the primary antibodies as follow; ASL (1:100, Abcam, ab97370, CA, USA); F4/80 (1:50, Serotec, Kidllington, UK); Mac-2 (1:400, Cedarlane, N.C., USA). For fluorescent double-staining of ASL and CD11c the mouse anti ASL (1:50 Santa Cruz Biotechnology, Inc. sc-166787, TX, USA) and rabbit anti CD11c (1:50, ab52632) were used. All antibodies were diluted in PBS containing 2% normal horse serum and 0.2% Triton. Sections were incubated overnight at RT followed by 48 hours at 4° C. Sections were washed three times in PBS and incubated with secondary biotinylated IgG at RT (room temperature) for 1.5 hour, washed three times in PBS and incubated with avidin-biotin Complex (Elite-ABC kit, Vector Lab, CA, USA) at RT for additional 90 minutes followed by DAB (Sigma) reaction. For the fluorescent staining the CY2 conjugated anti mouse and CY3 conjugated streptavidin (1:100 and 1:200 respectively, Jackson ImmunoResearch, West Grove, Pa.) were used.

The subject of test [3] is C57BL/6J.OlaaHsd mice. Briefly: DSS-induced colitis, treatment with arginine, citrulline, NaNO2, fisetin or citrulline plus fisetin. The following applies: day 12.
The subject of test [4] is intestine. Description: Tunnel staining of intestine (apoptosis). The following applies: colitis mice, citrulline vs control; FIGS. 3F-H. As for the experimental part: Tunnel staining was performed by using ApopTag kit detection according to manufacturer's instructions (Millipore, CA, USA). Stained sections were examined and photographed by a fluorescence or bright field microscope (Eclipse Ni-U; Nikon, Tokyo, Japan) equipped with Plan Fluor objectives (10; 20×; 40×) connected to a monochrome camera (DS-Qi1, Nikon).

In test [5] the test system is enterocytes. Briefly: FACS analysis of colon epithelial cells (enterocytes) after colitis induction. The method, then: Colon segment was flushed with cold PBS, longitudinally cut open and rinsed to remove residual luminal contents. Tissue was cut into 3- to 5-mm pieces and incubated in HBSS medium containing EDTA 0.5 M and Hepes 10 mM at 37° C. for 20 minutes, shaken at 180 rpm, to separate epithelial fraction. Supernatant was centrifuged at 4° C. at 500 g for 10 minutes. Recovered tissue was digested in HBSS medium with 2% fetal bovine serum (FBS), 0.05% collagenase II and 0.05% DNase I (Sigma) for 40 minutes. at 37° C., shaken at 180 rpm. LP cells were filtered through 65 μm mesh and centrifuged at 4° C. at 500 g for 10 minutes. The present inventors prepared single cell suspensions from mouse colon by enzymatic digestion and analyzed by polychromatic flow cytometry. Samples were stained with conjugated antibodies or matching isotype controls according to manufacturer's instructions. Data were acquired on an LSRII (BD Biosciences) or FACSCalibur instrument (Becton-Dickinson) with CellQuest software, with a MacsQuant instrument (Miltenyi, Bergisch Gladbach, Germany), and analyzed using BD FACSDiva 6 or FlowJo software (version 7.6.5, or version vX.0.7 Tree Star Inc) or MacsQuant. Colon cells were stained for 30 min at 4° C. in flow cytometry buffer (PBS, 10% FCS and 0.02% azide). For antigens that require intracellular staining (As1, iNOS and S-nitrosocystein), cell surface staining was followed by cell fixation and permeabilization with the Cytofix/Cytoperm kit (BD Biosciences) according to the manufacturer's instructions. For staining, the present inventors used a lineage cocktail of antibodies anti-CD45-APC, Anti-CD64-PE, Anti-CD11c-PB, Anti-326-APC cy7, Anti CD31-PE cy7 (all from BioLegend). After staining for cell surface antigens, intracellular NO was detected by incubation of cells for 15 min at 37° C. with 10 μM DAF-FM diacetate followed by extensive washing, according to the manufacturer's instructions (Molecular Probes). Staining without addition of the DAF-FM probe was considered to be the baseline for gating the positive population. As1 was detected using anti-As1-ALEXA FLUOR® 488 (BD Biosciences), iNOS using anti-iNOS followed by anti-rat 488 (Jackson ImmunoResearch), and nitrosylation using anti-S-nitrosocystein (from abcam) followed by anti-mouse 488 (Jackson ImmunoResearch).
(In flow cytometry, cells or beads pass a laser one at a time.)

Setting [6] is: then arginine 1%, citrulline 1% or NaNO2 100 mg in drinking water 6 days vs water control, FIG. 3A.
[7] abbreviates: arginine, citrulline or NaNO2 vs water control, FIG. 3C.
[8] abbreviates: arginine, citrulline or NaNO2 vs water control.
Setting [9] is: arginine, citrulline or NaNO2 vs water control, FIG. 3B.

“Also recorded” adds a separate entry of the source.

Take `O=N[O-].[Na+]` [NaNO2]: the weight loss entry in test [1] (setting [6]) is recorded as “significant weight loss reduction in the control group compared to the three treatments”. For the same molecule, the colon length entry in test [1] (setting [7]) is recorded as “significant reduction in colon length in the control group as compared to the treated colons”. For the same molecule, in test [1] (setting [8]), the “Histology score for colitis” value was “significantly lower”. Besides, in test [1] (FIG. 3A-D), the “clinical improvement in colitis severity” value is “significant clinical improvement”. The “As1 expression in distal colon sections (intestine, enterocytes)” value (from here on “As1 expression in distal colon sections”) in test [2] was “reduced expression”. The endoscopic colitis score entry in test [3] (setting [9]) is recorded as “Significant improvement”.
With `N=C(N)NCCC[C@H](N)C(=O)O` [arginine], the weight loss result in test [1] (setting [6]) was “significant weight loss reduction in the control group compared to the three treatments”. For the same molecule, the colon length result in test [1] (setting [7]) is given as “significant reduction in colon length in the control group as compared to the treated colons”. Moreover, the “Histology score for colitis” value in test [1] (setting [8]) is “significantly lower”. In addition, in test [1] (FIG. 3A-D), the “clinical improvement in colitis severity” value is given as “significant clinical improvement”. In test [2], the “As1 expression in distal colon sections” value is recorded as “upregulated”. The endoscopic colitis score entry in test [3] (setting [9]) is on record as “Significant improvement”.
Take `NC(=O)NCCCC(N)C(=O)O` (stereo not drawn) [citrulline, 2-Amino-5-(carbamoylamino)pentanoic acid]: the weight loss entry in test [1] (setting [6]) is “significant weight loss reduction in the control group compared to the three treatments”; in test [1] (then fisetin 1 mg IP twice, citrulline 1% in drinking water or both vs DMSO control, FIG. 4B) it was “significant weight loss is documented in the control group compared to the treated mice”. The “effectiveness in alleviating colitis severity compared among arginine, citrulline and NO donor” value in test [1] (FIG. 3A-D) is on record as “the most effective”. Further, the colon length entry in test [1] (setting [7]) is listed as “significant reduction in colon length in the control group as compared to the treated colons”; in test [1] (fisetin, citrulline or both vs DMSO control, FIG. 4D) it was “significant longer”. Further, the “Histology score for colitis” value in test [1] (setting [8]) was “significantly lower”. For the same molecule, the “clinical improvement in colitis severity” value in test [1] (FIG. 3A-D) is given as “significant clinical improvement”. Moreover, in test [1] (fisetin, citrulline or both vs DMSO control, FIG. 4E), the histological score result was “significant reduction”. Besides, the “As1 expression in distal colon sections” value in test [2] is given as “upregulated; also recorded: more pronounce expression”. Besides, the “apoptosis in the intestine” value in test [4] is given as “decreased apoptosis; also recorded: increased apoptosis in the control intestine as compare to colon taken from mice treated with citrulline”. In test [5] (FIGS. 3I-J), the “induction of NO synthesis in enterocytes, citrulline compared with arginine” value is given as “more effective than arginine”. Further, in test [5] (after colitis induction, treated vs control, FIGS. 3F-J, 4F-I), the “NO levels in enterocytes (colon epithelial cells)” value is on record as “increased generation of NO”. In addition, the “endoscopic colitis score, citrulline in comparison to arginine” value in test [3] (FIG. 3B) is “more beneficial treatment”. Also, the endoscopic colitis score result in test [3] (setting [9]) is “Significant improvement”; in test [3] (fisetin, citrulline or both vs DMSO control, FIG. 4C) it was “significant improvement”.

These data come from patent US20190314312A1, “COMBINATION THERAPY TO INCREASE ENDOGENOUS NITRIC OXIDE (NO) SYNTHESIS” (Yeda Research and Development Co. Ltd., priority 2016, published 2019).
